Laboratory results: ChEMBL document CHEMBL2434848, “Synthesis and biological evaluation of novel alkyl amide functionalized trifluoromethyl substituted pyrazolo[3,4-b]pyridine derivatives as potential anticancer agents” (Bioorg Med Chem Lett, 2013)

Tests used:
Assay type in all cases: functional, cell-based; call rule not given here
[1] = system: HeLa; assay: Cytotoxicity against human HeLa cells after 24 hrs by MTT assay
[2] = system: DU-145; assay: Cytotoxicity against human DU145 cells after 24 hrs by MTT assay
[3] = system: MCF7; assay: Cytotoxicity against human MCF7 cells after 24 hrs by MTT assay
[4] = system: A549; assay: Cytotoxicity against human A549 cells after 24 hrs by MTT assay
[5] = Homo sapiens, HeLa, 24 h, read-out: IC50
[6] = Homo sapiens, DU-145, 24 h, read-out: IC50
[7] = Homo sapiens, MCF7, 24 h, read-out: IC50
[8] = Homo sapiens, A549, 24 h, read-out: IC50

SMILES	IC50 [1, 5] [µM]	IC50 [2, 6] [µM]	IC50 [3, 7] [µM]	IC50 [4, 8] [µM]	IC50 ([1]; hela)	IC50 ([2]; du-145)	IC50 ([3]; mcf7)	IC50 ([4]; a549)
Nc1nn(CC(=O)N2CCOCC2)c2nc(-c3ccccc3)cc(C(F)(F)F)c12	6.6	5.1	5.9	5.4				
Nc1nn(CC(=O)NC2CCCCC2)c2nc(-c3ccccc3)cc(C(F)(F)F)c12	3.9	3.1	5.2	2.3				
Nc1nn(CC(=O)NCc2ccco2)c2nc(-c3ccccc3)cc(C(F)(F)F)c12	7.1	5.6	5	7.7				
Nc1nn(CC(=O)NCC(=O)O)c2nc(-c3ccccc3)cc(C(F)(F)F)c12	19.1	18.8	21.2	19.9				
CN1CCN(C(=O)Cn2nc(N)c3c(C(F)(F)F)cc(-c4ccccc4)nc32)CC1	17.7	18.1	16.6	18.4				
CC(NC(=O)Cn1nc(N)c2c(C(F)(F)F)cc(-c3ccccc3)nc21)C(=O)O (stereo not given)	20.1	22.4	19.9	25.6				
CNC(=O)Cn1nc(N)c2c(C(F)(F)F)cc(-c3ccccc3)nc21	12.2	14.4	11.8	15.3				
CCCNC(=O)Cn1nc(N)c2c(C(F)(F)F)cc(-c3ccccc3)nc21	15.9	15.5	14.9	16.5				
CCNC(=O)Cn1nc(N)c2c(C(F)(F)F)cc(-c3ccccc3)nc21	20.2	17.9	21.3	18.8				
NCCNC(=O)Cn1nc(N)c2c(C(F)(F)F)cc(-c3ccccc3)nc21	44.5	38.9	42.9	50.2				
Nc1nn(CC(=O)N2CCN(c3ccccc3)CC2)c2nc(-c3ccccc3)cc(C(F)(F)F)c12	19.8	18.9	19.7	20.7				
Nc1nn(CC(=O)N2CCN(CCO)CC2)c2nc(-c3ccccc3)cc(C(F)(F)F)c12	2.9	3.2	15.6	14.9				
Nc1nn(CC(=O)NCCO)c2nc(-c3ccccc3)cc(C(F)(F)F)c12	69.5	96.3	78.2	128				
Nc1nn(CC(=O)N2CCCC2)c2nc(-c3ccccc3)cc(C(F)(F)F)c12	16.1	12.2	15.9	18.7				
O=c1[nH]cc(F)c(=O)[nH]1 [FLUOROURACIL]	1.1	1.3	1.2	1.1				
Nc1nn(CC(=O)NC2CC2)c2nc(-c3ccccc3)cc(C(F)(F)F)c12					Not Active	Not Active	Not Active	Not Active
Nc1nn(CC(=O)NC(Cc2ccccc2)C(=O)O)c2nc(-c3ccccc3)cc(C(F)(F)F)c12 (stereo not given)	31.3	32.3	42.1	30.1				
Nc1nn(CC(=O)N2CCCCC2)c2nc(-c3ccccc3)cc(C(F)(F)F)c12	2.9	3.2	4.1	1.2				
Nc1nn(CC(=O)NCc2ccccc2)c2nc(-c3ccccc3)cc(C(F)(F)F)c12	17.1	15.6	16.3	17.3				
NNC(=O)Cn1nc(N)c2c(C(F)(F)F)cc(-c3ccccc3)nc21	48.4	52.4	35.4	53.6				
